Entries after “also recorded” stand apart in the source; their conditions may differ.

In experiment [1] the test system is MCA205 (fibrosarcoma) tumor cells. Nature of the experiment: MCA205 syngeneic mouse tumor model. The experiment is classed as in vivo, C57BL/6 mice. To be noted: MCA205 tumors; result in words. The protocol:
(§1) In vivo studies were performed using 8-10 week old BALB/cAnNCrl mice (Charles River UK) or C57BL/6. Mice were housed in an AstraZeneca vivarium with access to food and water ad libidum and were cared for daily by trained personnel. Mice were acclimatized to the vivarium conditions for a week and handled according to the Home Office Animals Scientific Procedures Act, 1986, UK. All animal work was carried out under a Home Office approved project licence (PPL P49077891) and […] (RTx studies) as well as according to the institutional guidelines. BALB/c mice were subcutaneously implanted with 0.5e6 CT26 (colorectal) tumor cells. […] Tumors were measured with callipers three times a week, starting from day-5. […]
(§2) All in vivo data were collated in the Excel spreadsheets and transferred to GraphPad Prism 9.00 (GraphPad Software Inc.) for graphical representation and statistical analysis. After outlier identification and Shapiro-Wilk test for normality distribution, statistical significance was determined by One-way ANOVA followed by Dunnett's multiple comparison for comparisons of more than two groups if data were normally distributed. […] Survival studies were analysed with a log rank (Mantel-Cox) test, comparing only two survival curves at a time. […]

In a further experiment the test system is CT26 transcriptome. Nature of the experiment: RNAseq of treated CT26 tumors. The experiment is classed as in vivo, Mus musculus. The protocol:
Tumor tissue was flash-frozen in liquid nitrogen and stored at −80° C. at the time of collection in the animal unit and was sent to Novogene on dry ice. Tissue processing and RNA extraction was carried out by Novogene Co. by using the QIAGEN RNeasy Plus Universal kit (Qiagen, Cat. No. 73404), according to the manufacturer's protocol. Briefly, tissue samples were homogenized in QIAzol Lysis Reagent. The homogenate was then separated into aqueous and organic phases by centrifugation after addition of gDNA eliminator solution and chloroform. The upper, aqueous phase containing RNA was collected, and RNA purified using RNeasy spin columns. RNA quality check (QC) was performed by 1% Agarose gel electrophoresis, amount and purity were measured by Nanodrop, and RNA […] Number (RIN) was obtained by Bioanalyzer Agilent2100.
NEBNextR Ultra RNA library prep kit (Cat. No. E7530L) was used for library preparation for sequencing. Samples were sequenced using Illumina PE150 (50M reads/sample) bulk RNA-seq and downstream bioinformatic analysis was performed.
Reads were mapped to Mus musculus genome (mm10) genome using Star (Dobin A et al., Bioinformatics 2013; 29:15-21). Uniquely mapped reads were counted using htseq-count (Putri GH et al., Bioinformatics 2022; 38:2943-5). DESeq2 (Love M I et al., Genome Biol 2014; 15) was used to normalize counts with size factors and identify differentially expressed genes across conditions with a threshold of abs (log2FC)>1 and adjusted p value<0.05.
(§3) Gene set enrichment analysis was performed using R package ‘fGSEA’ (Korotkevich G et al., bioRxiv 2021; 060012) using hallmark gene sets from mouse MSigDB (Subramanian A. et al., Proc Natl Acad Sci USA 2005; 102:15545-50). Enrichment p-values were calculated as described in Korotkevich G et al., bioRxiv 2021; 060012 and p-values were adjusted using Benjamini-Hochberg method. Gene ontology Biological Process enrichments were identified using R package topGO (Bioconductor-topGO) with adj-pval<0.05. KEGG pathway enrichment analysis was conducted using R package clusterProfiler (Wu T. et al., The Innovation 2021; 2:100141). MCPCounter tool (Becht E. et al., Genome Biol 2016; 17:1-20) was used to estimate immune cell abundances for each sample and condition using immune gene signatures within MCPCounter.

Experiment [2] concerns immune cell populations in the treated CT26 tumors. Nature of the experiment: MCP-Counter estimate of immune cell abundance from RNAseq. Also noted: species or system mouse. The settings on record: MCP counter on RNAseq. The protocol: as §3
Next we checked if the gene perturbation at this scale also led to changes in the enumeration of the cell populations. For this we estimated the abundance of immune cell populations in the treated CT26 tumors, using the MCP-Counter tool (Becht E, et al., Genome Biol 2016; 17:1-20).

The test system of experiment [3] is adenosine pathway metabolites. Nature of the experiment: Mass Spectrometry Imaging of CT26 tumors. Format: in vivo, mouse. The protocol: Tumors were snap frozen in liquid nitrogen immediately after resection and the frozen tissues were embedded in a HPMC/PVP hydrogel as previously described (Dannhorn A. et al., Anal Chem 2020; 92:11080-8). Sectioning was performed on a CM3050 S cryostat (Leica Biosystems, Nussloch, Germany) at a section thickness of 10 um and the tissue sections were immediately thaw mounted and dried under a stream of nitrogen and sealed in vacuum pouches to preserve the metabolic integrity of the sections. Tissue sections for DESI-MSI and IMC were thaw-mounted onto Superfrost microscope slides (VWR, Cat. No. 630-2863), whilst sections prepared for MALDI-MSI were thaw mounted onto conductive indium tin oxide (ITO) coated slides (Bruker Daltonik, Cat. No. 8237001). Polyvinylpyrrolidone (PVP) and (Hydroxypropyl) methylcellulose (HPMC) (purchased from Merck (Cat. No.PVP360; H8384). Methanol (Cat. No. 15624680), iso-pentane (Cat. No. 15692830) and isopropyl alcohol (Cat. No. 10674732) were obtained from Fisher Scientific.
DESI-MSI analysis was performed on a Q-Exactive mass spectrometer (Thermo Scientific, Bremen, Germany) equipped with an automated 2D-DESI ion source (Prosolia Inc., Indianapolis, IN, USA) operated in negative ion mode, covering the applicable mass range up to m/z of 1000, with a nominal mass resolution of 70,000. […]

For experiment [4], the system named is CT26 (colorectal) tumor cells. Nature of the experiment: CT26 syngeneic mouse tumor model. The experiment is classed as in vivo, BALB/c mice. The settings on record: CT26 tumors; result in words. The protocol:
as §1, §2

Setting [5] is: CT26 tumors vs control, abs(log2FC)>1, adjusted p<0.05.
The mark [6] stands for this setting: CT26 tumors, component added to the other parts of aCD73+aPD-L1+5FU+OHP.
Setting [7] is: component within aCD73+aPD-L1+5FU+OHP, not modulated in other iterations.

Consider “5-fluorouracil (5FU)+oxaliplatin (OHP) [5FU+OHP]”, for which the “tumor growth inhibition / efficacy” value in experiment [1] was “supressed tumor growth rates; also recorded: retarded tumor growth in a proportion of drug recipients”. Also, in the experiment with CT26 transcriptome (setting [5]), the Down-regulated genes worked out at 158 genes, the Up-regulated genes worked out at 277 genes and the “differentially expressed (DE) genes” value was 435 DE DE genes. The Up-regulated genes in the experiment on CT26 transcriptome (CT26 tumors vs control, abs(log2FC)>1, adjusted p<0.05, listed as FF) turned out to be 277 Up- genes. For the same substance, in the experiment with CT26 transcriptome (setting [6]), the “genes downregulated when the named component is included in the combination” value was “IL-10, IL-1b, CXCL2, S100A8”; the “genes upregulated or notably influenced when the named component is included in the combination” value is “Interferon-gamma, TRIM6, CCL17, Granzyme B, GDF15, perforin and Lag3”. In addition, in the experiment on CT26 transcriptome (CT26 tumors, gene names), the individual genes downregulated result was “CXCL2 expression was reduced; also recorded: CXCL2, IL-1b, CD103 and XCR1”; the individual genes upregulated entry was “CCL3, 4, 8, 17, CXCL10, GDF15, CD8a, IFNγ, Perforin, Granzyme, Lag-3 and PD-1; also recorded: IFN-Y, CCL3, CCL8, Lag-3 and granzyme B; also recorded: elevated ARORA2 gene expression”. For the same substance, the “DE genes due to addition of the named component” value with CT26 transcriptome (aCD73+aPD-L1+5FU+OHP vs the combination without the component, Abs(log2FC)>=1, Adj-pval<0.05) was found to be 546 DE genes. Also, in the experiment with CT26 transcriptome (setting [7]), the “genes uniquely downregulated by the named component” value came out at 122 genes and the “genes uniquely upregulated by the named component” value was determined as 360 genes. In addition, the “abundance of immune cell populations in tumor” value in experiment [2] is recorded as “increased lymphocyte representation”. In experiment [3] (compared to control treated tumors), the “ATP abundance (MSI)” value was “modest increase”. Besides, the “AMP abundance (MSI)” value in experiment [3] (compared to other treatment groups) is listed as “modest increase”. In addition, in experiment [4], the “tumor growth inhibition / efficacy” value is reported as “supressed tumor growth rates; also recorded: retarded tumor growth in a proportion of drug recipients”.

(Values after patent US20250340648A1, “COMBINATION THERAPY FOR TREATMENT OF CANCER COMPRISING ANTI-PD-L1 AND ANTI-CD73 ANTIBODIES” (MedImmune Limited, priority 2022, published 2025).)
